Experimental data: ChEMBL document CHEMBL2010676, “Metabolites of Microcystis aeruginosa bloom material from Lake Kinneret, Israel” (J Nat Prod, 2012)
Activity calls are given as the source filed them. No cut-off for these calls is given here.

Tests used:
[1] = target: Prothrombin (Homo sapiens) (UniProt P00734); assay: Inhibition of thrombin at 45.5 uM
[2] = Inhibition of chymotrypsin
[3] = Inhibition of trypsin at 45.5 uM
[4] = Inhibition of elastase at 45.5 uM
[5] = target: T1, Aminopeptidase N (Bos taurus) (UniProt P79098); assay: Inhibition of bovine amino peptidase N at 45.5 uM
T1 sequence (whole entry): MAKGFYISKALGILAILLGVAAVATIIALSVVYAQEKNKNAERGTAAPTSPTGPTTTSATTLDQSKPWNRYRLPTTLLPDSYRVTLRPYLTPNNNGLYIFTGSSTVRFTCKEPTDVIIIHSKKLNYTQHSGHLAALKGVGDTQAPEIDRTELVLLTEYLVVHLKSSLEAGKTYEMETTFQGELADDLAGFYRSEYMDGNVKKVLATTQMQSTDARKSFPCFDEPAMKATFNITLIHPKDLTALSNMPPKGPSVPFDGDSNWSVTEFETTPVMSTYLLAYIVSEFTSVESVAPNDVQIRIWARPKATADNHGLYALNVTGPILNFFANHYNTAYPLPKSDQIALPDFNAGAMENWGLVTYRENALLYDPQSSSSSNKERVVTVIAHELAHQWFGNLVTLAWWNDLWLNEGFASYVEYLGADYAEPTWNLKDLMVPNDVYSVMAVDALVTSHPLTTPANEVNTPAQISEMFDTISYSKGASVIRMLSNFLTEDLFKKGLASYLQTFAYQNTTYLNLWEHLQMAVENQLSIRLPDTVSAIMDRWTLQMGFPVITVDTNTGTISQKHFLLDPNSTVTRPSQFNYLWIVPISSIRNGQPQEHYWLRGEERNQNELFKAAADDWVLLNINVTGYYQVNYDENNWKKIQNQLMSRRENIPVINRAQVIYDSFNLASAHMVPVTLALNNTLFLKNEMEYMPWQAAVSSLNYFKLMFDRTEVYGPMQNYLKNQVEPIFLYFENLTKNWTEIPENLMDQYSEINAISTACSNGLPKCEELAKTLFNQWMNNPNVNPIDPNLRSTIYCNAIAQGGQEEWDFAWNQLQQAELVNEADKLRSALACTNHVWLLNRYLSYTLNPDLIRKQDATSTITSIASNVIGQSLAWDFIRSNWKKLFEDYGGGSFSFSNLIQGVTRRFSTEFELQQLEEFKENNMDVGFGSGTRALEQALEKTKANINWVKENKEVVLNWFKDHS

[6] = system: HCT-116; assay: Cytotoxicity against human HCT116 cells at 1.6 uM; assay type: functional, cell-based
[7] = Inhibition of trypsin
[8] = Inhibition of chymotrypsin at 45.5 uM
[9] = target: Prothrombin (Homo sapiens) (UniProt P00734); assay: Induction of thrombin activity at 45.5 uM

Row | Structure (SMILES) | inhibition [1] | IC50 [2] [µM] | inhibition [3] | inhibition [4] | inhibition [5] | IC50 [7] [µM] | inhibition [8] | Activity [9] [%] | Activity [6]
1 | CC[C@@H](C)[C@H]1C(=O)N(C)[C@@H](Cc2ccccc2)C(=O)N[C@@H](C(C)C)C(=O)O[C@H](C)[C@H](NC(=O)[C@H](CCC(N)=O)NC(=O)[C@H](O)Cc2ccc(O)cc2)C(=O)N[C@@H](Cc2ccc(O)cc2)C(=O)N[C@H]2CC[C@@H](O)N1C2=O (relative stereo) | inactive | 0.26 | inactive | inactive | – | – | – | – | –
2 | CC(OC(=O)C(CCCNC(=N)N)[N+](C)(C)C)C(OS(=O)(=O)[O-])c1ccc(OS(=O)(=O)O)c(COS(=O)(=O)O)c1 (stereo not drawn) | inactive | – | inactive | – | inactive | – | – | – | inactive
3 | CC(C)C[C@@H](NC(=O)[C@H](O)Cc1ccc(O)cc1)C(=O)N[C@@H](Cc1ccccc1)C(=O)NCCCCNC(=N)N | inactive | – | – | inactive | – | 45.5 | inactive | – | –
4 | CC(=O)O[C@@H]1CC[C@@H]2C[C@H](C(N)=O)N(C(=O)[C@@H](Cc3ccc(O)cc3)NC(=O)[C@@H](O)Cc3ccc(O)cc3)[C@@H]2C1 | inactive | – | – | inactive | – | 45.5 | inactive | – | –

More lines, main results first:

Row | inhibition [1] | IC50 [2] [µM] | inhibition [3] | inhibition [4] | inhibition [5] | IC50 [7] [µM] | inhibition [8] | Activity [9] [%] | Structure (SMILES) | Activity [6]
5 | < 50% | – | – | inactive | – | 19.9 | inactive | – | CC(=O)O[C@H](Cc1ccc(O)cc1)C(=O)N[C@H](Cc1ccccc1)C(=O)N1[C@@H](C(=O)NCCCCNC(=N)N)C[C@H]2CC[C@@H](O)C[C@H]21 | –
6 | < 50% | – | – | inactive | – | 1.3 | inactive | – | N=C(N)NCCCCNC(=O)[C@H]1C[C@H]2CC[C@@H](O)C[C@H]2N1C(=O)[C@@H](Cc1ccccc1)NC(=O)[C@H](O)Cc1ccc(O)cc1 | –
7 | – | – | – | inactive | – | 1.9 | inactive | 30 | N=C(N)NCCCCNC(=O)[C@H]1C[C@H]2CC[C@@H](O)C[C@H]2N1C(=O)[C@@H](Cc1ccccc1)NC(=O)[C@@H](O)Cc1ccc(O)cc1 | –
